Data on 27 compounds can be found in ChEMBL document CHEMBL1201862, “PubChem BioAssay data set” (2004).

Activity calls are given as the source filed them.

The subject of one data set is P388/ADR. As to the kind of experiment: cells. The format is functional. The conditions noted are these: Mus musculus.
The next data set relates to SN12K1. As to the kind of experiment: cells. The format is functional. The conditions noted are these: Homo sapiens.
Another data set deals with P388. As to the kind of experiment: cells. The format is functional. The conditions noted are these: Mus musculus.
Data set [1] concerns the target T1, Ubiquitin-conjugating enzyme E2 N (Homo sapiens, UniProt P61088).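 Further: Dose-response confirmation in a TR-FRET assay detecting UBC13-driven polyubiquitin chain formation, inhibition measured.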
T1 sequence (P61088 whole entry): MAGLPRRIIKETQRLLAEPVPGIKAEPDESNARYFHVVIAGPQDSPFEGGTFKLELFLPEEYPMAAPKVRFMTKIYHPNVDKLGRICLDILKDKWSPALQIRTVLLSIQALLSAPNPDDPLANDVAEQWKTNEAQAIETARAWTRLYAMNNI
It is filed as functional.

The target in data set [2] is T2, Corticotropin-releasing factor receptor 2/Corticotropin-releasing factor-binding protein (Homo sapiens, UniProt P24387+Q13324).
T2 sequence (Q13324 whole entry): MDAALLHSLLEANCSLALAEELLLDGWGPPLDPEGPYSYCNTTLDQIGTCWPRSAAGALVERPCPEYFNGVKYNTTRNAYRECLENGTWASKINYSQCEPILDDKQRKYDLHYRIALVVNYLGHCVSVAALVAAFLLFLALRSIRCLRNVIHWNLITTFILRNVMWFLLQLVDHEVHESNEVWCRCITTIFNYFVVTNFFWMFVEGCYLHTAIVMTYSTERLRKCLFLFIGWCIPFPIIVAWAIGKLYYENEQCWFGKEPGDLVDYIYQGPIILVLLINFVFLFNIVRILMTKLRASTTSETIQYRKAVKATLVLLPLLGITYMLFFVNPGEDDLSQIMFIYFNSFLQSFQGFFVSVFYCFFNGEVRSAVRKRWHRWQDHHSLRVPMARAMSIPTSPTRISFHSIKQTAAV
T2 sequence (P24387 whole entry): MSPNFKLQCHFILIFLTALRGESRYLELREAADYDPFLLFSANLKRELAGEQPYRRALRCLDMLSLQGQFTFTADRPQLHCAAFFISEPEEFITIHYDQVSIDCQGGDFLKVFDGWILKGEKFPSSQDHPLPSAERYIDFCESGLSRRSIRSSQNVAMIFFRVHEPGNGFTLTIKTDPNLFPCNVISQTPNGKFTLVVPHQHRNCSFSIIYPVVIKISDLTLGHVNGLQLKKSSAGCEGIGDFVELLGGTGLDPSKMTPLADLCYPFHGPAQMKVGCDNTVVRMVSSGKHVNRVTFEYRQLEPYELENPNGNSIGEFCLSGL
As to the kind of experiment: Dose Response confirmation of uHTS hits for small molecule antagonists of the CRF-binding protein and CRF-R2 receptor complex. It is filed as functional. The conditions noted are these: read-out: IC50_Mean.

Data set [3] concerns the target T2, Corticotropin-releasing factor receptor 2/Corticotropin-releasing factor-binding protein. As to the kind of experiment: activators of CRF receptor 2 with binding protein – uHTS hits, confirmation (AID 602473). It is filed as functional. The conditions noted are these: read-out: EC50_Mean.
In the next data set the target is Genome polyprotein (dengue virus type 2, UniProt P29990). As to the kind of experiment: flavivirus cap methylation enzyme inhibition – biochemical, confirmation dose response, primary screen (AID 588689). The format is functional.
Chain of Genome polyprotein (P29990 2492-3391 limits assumed): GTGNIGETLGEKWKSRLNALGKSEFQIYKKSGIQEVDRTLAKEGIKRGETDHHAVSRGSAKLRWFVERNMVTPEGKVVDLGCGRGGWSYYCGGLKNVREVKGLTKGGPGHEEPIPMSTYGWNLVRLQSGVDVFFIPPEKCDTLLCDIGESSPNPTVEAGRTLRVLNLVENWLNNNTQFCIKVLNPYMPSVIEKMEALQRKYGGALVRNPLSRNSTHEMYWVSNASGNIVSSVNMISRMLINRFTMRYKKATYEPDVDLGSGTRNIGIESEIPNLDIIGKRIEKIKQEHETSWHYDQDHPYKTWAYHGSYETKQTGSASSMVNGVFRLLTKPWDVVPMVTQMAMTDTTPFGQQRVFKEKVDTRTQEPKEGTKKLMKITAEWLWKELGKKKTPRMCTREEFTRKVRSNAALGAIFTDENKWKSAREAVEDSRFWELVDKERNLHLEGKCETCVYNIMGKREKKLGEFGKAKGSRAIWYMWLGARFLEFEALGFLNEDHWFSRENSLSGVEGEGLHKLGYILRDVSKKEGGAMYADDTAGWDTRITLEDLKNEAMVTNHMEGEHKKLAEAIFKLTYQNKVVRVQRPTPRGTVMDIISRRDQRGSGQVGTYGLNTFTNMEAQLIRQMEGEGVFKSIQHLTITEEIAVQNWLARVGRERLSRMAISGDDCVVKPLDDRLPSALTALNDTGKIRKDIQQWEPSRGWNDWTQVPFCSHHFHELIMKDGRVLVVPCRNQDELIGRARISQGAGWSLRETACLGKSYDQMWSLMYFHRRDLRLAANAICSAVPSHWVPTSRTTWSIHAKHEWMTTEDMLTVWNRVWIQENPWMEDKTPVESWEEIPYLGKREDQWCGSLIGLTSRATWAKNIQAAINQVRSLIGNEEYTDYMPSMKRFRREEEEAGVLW
A short description of data set [4]: THP-1 cell cytotoxicity, dose response, cytotoxicity control for non-replicating M. tuberculosis project (AID 489025). The format is functional.
Data set [5] in a line: Vero E6 cell cytotoxicity, dose response, cytotoxicity control for non-replicating M. tuberculosis project, secondary assay (AID 492998). It is filed as functional, VeroE6. The conditions noted are these: Vero C1008.
Another data set is described as follows: cells. The format is functional.
Data set [6] has as its target Luciferin 4-monooxygenase (Photinus pyralis, UniProt P08659). As to the kind of experiment: inhibition of purified Photinus pyralis luciferase – biochemical, luminescence, dose response (AID 1891).
A short description of data set [7]: Luminescence Cell-Based Dose Confirmation HTS to Identify Inhibitors of Platelet Dense Granule Release. [Related pubchem assays: 1663 (Primary HTS), 1678 (Summary of Project)]. It is filed as functional.
A further data set addresses Cytochrome P450 2C9 (Homo sapiens, UniProt P11712).
Data set [8] in a line: viability of PTEN-deleted HCT116 cells – cell-based, HCT116 PTEN knockout, dose response (AID 1047).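 Further: HCT116 colon tumor cells with PTEN knocked out; cells exposed to compound for 60 hours before readout; potency for loss of cell viability measured by luminescence.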 It is filed as functional.
The nature of data set [9]: viability of HCT116 lacking mutant beta-catenin – cell-based, human colon tumor, dose response (AID 1045).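 Further: HCT116 colon tumor cells with beta catenin knocked out; cells exposed to compound for 60 hours.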 The format is functional.
In data set [10] the test system is Streptococcus sp. 'group A'. As to the kind of experiment: Streptococcus pyogenes SK(-)GAS viability under kanamycin – luminescence, BacTiterGlo, confirmation, counter-screen for streptokinase expression inhibitor project, dose response (AID 1900). It is filed as functional, organism-based. The conditions noted are these: Streptococcus sp. 'group A'. (In general: The purpose of a counterscreen is to sort out artefacts and off-target activity.)

In the next data set the test system is Streptococcus. As to the kind of experiment: GAS UMAA2166 growth inhibition – luminescence, BacTiterGlo, counter-screen for streptokinase expression inhibitor project, dose response (AID 1915).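 Further: potency for reduction of bacterial viability or growth.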 It is filed as functional, organism-based. The conditions noted are these: Streptococcus.
Data set [11] in a line: Luminescence Cell-Based Dose Retest to Confirm Inhibitors of Cancer Stem Cells. [Related pubchem assays (depositor defined):AID2717, AID2721]. It is filed as functional, Homo sapiens. The conditions noted are these: Homo sapiens.
The next data set concerns the target Cytochrome P450 2D6 (Homo sapiens, UniProt P10635).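 Further: CYP2D6 member of a cytochrome P450 panel assay.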
The target in another data set is T3, Cytochrome P450 1A2 (Homo sapiens, UniProt P05177).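 Further: PubChem cytochrome P450 panel assay, CYP1A2 panel member.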
T3 sequence (P05177 whole entry): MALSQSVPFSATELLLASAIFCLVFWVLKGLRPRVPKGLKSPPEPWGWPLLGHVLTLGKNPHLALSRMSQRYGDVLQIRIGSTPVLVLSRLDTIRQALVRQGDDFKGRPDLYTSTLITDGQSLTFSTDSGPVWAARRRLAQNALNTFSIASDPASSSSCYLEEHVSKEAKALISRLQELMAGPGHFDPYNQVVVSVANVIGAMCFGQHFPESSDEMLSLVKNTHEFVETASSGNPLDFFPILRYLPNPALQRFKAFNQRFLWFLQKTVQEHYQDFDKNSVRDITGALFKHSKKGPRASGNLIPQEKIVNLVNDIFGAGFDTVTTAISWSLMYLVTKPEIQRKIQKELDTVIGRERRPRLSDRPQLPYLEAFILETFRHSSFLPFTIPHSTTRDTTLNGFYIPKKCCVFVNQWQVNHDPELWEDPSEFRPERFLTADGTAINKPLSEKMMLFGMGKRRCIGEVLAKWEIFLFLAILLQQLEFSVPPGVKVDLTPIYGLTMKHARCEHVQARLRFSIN

Data set [12] is described as follows: Trypanosoma cruzi growth suppression in host cells – NIH3T3 host cells, beta-gal luminescence, confirmation (AID 2044).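 Further: intracellular parasites grown in NIH/3T3 mouse fibroblasts as host cells; luminescent beta-galactosidase reporter signal from transgenic T. cruzi replicating inside host cells; inhibitors lower the luminescence signal.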 The format is functional, cell-based.
Data set [13] in a line: NIH3T3 cell viability loss – ATP luminescence, mouse fibroblasts, counter-screen, dose response (AID 2010).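 Further: cells exposed to compound for about 90 hours before reading.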 It is filed as functional, cell-based. The conditions noted are these: NIH3T3.

Chain of Cytochrome P450 2C9 (P11712 whole entry): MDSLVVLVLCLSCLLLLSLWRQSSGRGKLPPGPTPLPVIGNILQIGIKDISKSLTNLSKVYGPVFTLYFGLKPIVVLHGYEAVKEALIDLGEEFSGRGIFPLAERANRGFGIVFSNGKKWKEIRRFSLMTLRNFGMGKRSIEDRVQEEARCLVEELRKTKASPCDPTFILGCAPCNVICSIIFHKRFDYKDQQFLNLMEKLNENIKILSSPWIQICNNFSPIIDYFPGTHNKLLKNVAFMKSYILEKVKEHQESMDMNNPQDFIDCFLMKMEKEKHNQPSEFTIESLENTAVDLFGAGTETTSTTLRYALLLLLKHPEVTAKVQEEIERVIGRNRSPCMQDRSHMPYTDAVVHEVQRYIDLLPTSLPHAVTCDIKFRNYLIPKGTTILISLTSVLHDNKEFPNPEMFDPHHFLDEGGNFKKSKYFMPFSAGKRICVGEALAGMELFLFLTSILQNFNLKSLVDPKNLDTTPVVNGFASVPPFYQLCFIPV
Chain of Cytochrome P450 2D6 (P10635 whole entry): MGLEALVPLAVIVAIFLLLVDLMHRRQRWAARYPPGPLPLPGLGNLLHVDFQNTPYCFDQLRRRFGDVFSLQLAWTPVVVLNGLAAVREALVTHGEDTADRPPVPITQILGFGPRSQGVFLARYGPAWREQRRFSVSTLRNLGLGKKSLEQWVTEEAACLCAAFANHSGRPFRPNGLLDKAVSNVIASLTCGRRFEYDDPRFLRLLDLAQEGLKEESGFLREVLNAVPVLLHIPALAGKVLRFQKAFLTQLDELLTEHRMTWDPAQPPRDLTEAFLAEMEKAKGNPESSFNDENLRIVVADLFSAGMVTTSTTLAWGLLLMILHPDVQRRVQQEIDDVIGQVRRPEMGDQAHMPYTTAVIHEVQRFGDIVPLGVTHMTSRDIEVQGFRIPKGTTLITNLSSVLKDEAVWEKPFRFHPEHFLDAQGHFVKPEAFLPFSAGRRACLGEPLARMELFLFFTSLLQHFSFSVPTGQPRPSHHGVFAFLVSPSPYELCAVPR
Chain of Luciferin 4-monooxygenase (P08659 whole entry): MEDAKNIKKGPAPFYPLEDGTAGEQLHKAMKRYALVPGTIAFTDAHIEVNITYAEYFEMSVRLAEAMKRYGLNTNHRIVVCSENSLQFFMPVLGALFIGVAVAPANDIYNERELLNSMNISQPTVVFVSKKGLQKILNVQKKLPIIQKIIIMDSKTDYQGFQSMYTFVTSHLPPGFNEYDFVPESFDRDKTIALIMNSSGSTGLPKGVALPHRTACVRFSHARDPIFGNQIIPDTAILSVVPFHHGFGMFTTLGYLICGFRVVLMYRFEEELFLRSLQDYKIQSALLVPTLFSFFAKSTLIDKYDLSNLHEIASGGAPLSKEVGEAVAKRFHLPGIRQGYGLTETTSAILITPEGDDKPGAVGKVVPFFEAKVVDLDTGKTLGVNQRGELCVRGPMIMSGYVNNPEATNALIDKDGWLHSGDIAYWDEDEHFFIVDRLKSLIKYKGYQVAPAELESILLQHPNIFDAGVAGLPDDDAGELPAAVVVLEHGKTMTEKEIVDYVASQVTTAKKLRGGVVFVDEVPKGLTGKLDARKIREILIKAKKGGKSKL

Consider `NC1=NC(c2ccccc2)CC(c2cc(Cl)cc(Br)c2O)=N1` (stereo not given), for which the values for the GI50 in the data set with P388/ADR, in the data set on SN12K1 and in the data set with P388 were 3.87 µM (inactive), 13.6 µM (inactive) and 2.9 µM (inactive), respectively.

Turning to `COc1ccccc1NC(=O)CNC(=O)CC12CC3CC(CC(C3)C1)C2`, in data set [1], the IC50 is > 20 µM (inactive).

Take `CCC1=CC2CN3CCc4c([nH]c5ccccc45)C(C(=O)OC)(C2)C13` (stereo not given): the GI50 (commonly the concentration at which growth is held to half of that of the control) in the data set on P388/ADR is 30.1 µM (inactive); in the data set on SN12K1 it was 17.7 µM (inactive); in the data set with P388 it was 21 µM (inactive).

As to `Nc1ncnc2c(C3OC(CO)C(O)C3O)n[nH]c12` (stereo not given), the GI50 was 5.6 µM (inactive) in the data set with P388/ADR, 0.176 µM (active) in the data set with SN12K1 and 10.2 µM (inactive) in the data set on P388.

For the compound `CNC(=O)c1ccccc1NC(=O)c1cccc(S(=O)(=O)N2CCC(C)CC2)c1`, in [1], the IC50 is > 20 µM (inactive).

`c1ccc(C[C@H]2CN=C(Nc3ccccc3)N2CCCC2CCCCC2)cc1`: the IC50 in data set [1] was > 20 µM (inactive).

In the case of `O=C1NC2(CCCCC2)C(=O)N1CCN(CCCl)CCCl` [SPIROMUSTINE], the values for the GI50 in the data set with P388/ADR, with SN12K1 and in the data set with P388 were 29.6 µM (inactive), 132 µM (inactive) and 30.2 µM (inactive), respectively.

As to `C(=N/NC1=NCCN1)/c1c2ccccc2c(/C=N\NC2=NCCN2)c2ccccc12`, the GI50 is 14.6 µM (inactive) in the data set on P388/ADR, 0.0284 µM (active) in the data set on SN12K1 and 0.000861 µM (active) in the data set with P388.

`O=c1[nH]c2ccc(Cl)cc2[nH]1`: in data set [2], the IC50 was > 47.1 µM (inactive). Further, the EC50 in data set [3] was > 53 µM (inactive).

Take `Cc1ncsc1C(=O)N1CCCC(C(=O)c2ccc3ccccc3c2)C1` (stereo not given): in data set [2], the IC50 is > 47.1 µM (inactive). Also, the EC50 in data set [3] is > 53 µM (inactive).

`O=C(O)CN1C(=O)/C(=C\c2cccc(OCc3ccc(Cl)cc3)c2)SC1=S`: the IC50 on Genome polyprotein was 39.5 µM (active).

Consider `COc1cccc2c1C(=O)c1c(O)c3c(c(O)c1C2=O)C[C@](O)(C(=O)CO)CC3OC1CC(N)C(OC2CCCCO2)C(C)O1` (stereo not given in full), for which the GI50 was 3.14 µM (inactive) in the data set on P388/ADR, < 0.01 µM (active) in the data set on SN12K1 and < 0.01 µM (active) in the data set with P388.

With `C[C@H](NC(=O)c1[nH]cnc1C(=O)Nc1ccccc1)C(=O)OC(C)(C)C`, the CC50 – broadly, the concentration giving 50% cytotoxicity – in [4] is > 40 µM (active); in [5] it was > 20 µM (active). In addition, in the data set “cells”, the IC50 is 8.07 µM (active).

Take `CN(C(=O)Cn1nnc(-c2cccc(C(F)(F)F)c2)n1)C1CCCCC1`: the EC50 in [6] and in data set [7] was > 112 µM (not active) each time. At Cytochrome P450 2C9, the AC50 (as a rule, the concentration at which the activity in the assay is half-maximal) is reported as “inconclusive”.

As for `CCc1ccc(NC(=O)CSc2nc3cc(C(=O)OC)ccc3c(=O)n2CC2CCCO2)cc1` (stereo not given), the EC50 in data set [8] is 27.4 µM (active); in data set [9], 25.2 µM (active).

In the case of `Clc1ccc2c(N/N=C/c3ccc(Br)cc3)ccnc2c1`, the EC50 is 2.54 µM (active) in data set [10], 15.5 µM (active) in data set [8], 9.32 µM (active) in [9] and 3.89 µM (active) in the data set on Streptococcus. The AC50 in data set [11] was 3.79 µM (active).

Turning to `COc1ccc(/C=C\c2cc(OC)c(OC)c(OC)c2)c(O)c1O` [COMBRETASTATIN A-1], the concentration for 50% growth inhibition (GI50) in the data set on P388/ADR is 0.139 µM (active); in the data set with SN12K1, 0.05 µM (active); with P388 it was 0.0525 µM (active).

On to `CN(C)CCCNC(=O)C[C@H]1C[C@H](C(=O)N2CCOCC2)[C@@]2(C)c3[nH]c4ccc(Cl)cc4c3CCN2C1=O`, for which the IC50 in [2] is > 47.1 µM (inactive). In addition, in data set [3], the EC50 was > 53 µM (inactive).

`CC(Sc1nc(-c2ccccc2)cc(C(F)(F)F)n1)C(=O)Nc1ccc2c(c1)OCO2` (stereo not given): the results for the EC50 in [8] and in data set [9] were 19.3 µM (active) and 24.6 µM (active), respectively.

In the case of `Cc1cccc(C)c1NC(=O)Cc1cccs1`, the IC50 in data set [2] was > 47.1 µM (inactive). Moreover, the EC50 in data set [3] is > 53 µM (inactive).

In the case of `CN(CC(=O)Nc1cccc2c1CCCC2)S(=O)(=O)c1ccc(Br)cc1`, the AC50 at Cytochrome P450 2D6 is 3.16 µM (inconclusive); at Cytochrome P450 1A2 it was 10 µM (inconclusive); at Cytochrome P450 2C9, “inconclusive”.

As to `NC(=O)NO` [HYDROXYUREA], the GI50 in the data set with P388/ADR is 59.3 µM (inactive); in the data set on SN12K1, 173 µM (inactive); in the data set with P388, 69.8 µM (inactive).

`CC(C)Cn1cc(C(=O)N2CCC(C)CC2)c2c3ccccc3n(C)c2c1=O`: the IC50 in [2] was > 47.1 µM (inactive). Further, the EC50 in data set [3] was > 53 µM (inactive).

With `O=C(O)Cc1cccc2c(=O)cc(-c3ccccc3)oc12` [MITOFLAXONE], the GI50 was > 79.3 µM (inactive) in the data set with P388/ADR, > 250 µM (inactive) with SN12K1 and 93.8 µM (inactive) in the data set with P388.

In the case of `Cc1ccn2c(NC3CCCC3)c(-c3ccccn3)nc2c1`, the EC50 was 3.14 µM (active) in [10], 2.06 µM (active) in data set [12], > 60 µM (not active) in data set [13] and 13.3 µM (active) with Streptococcus. Also, the CC50 in data set [4] is 17.5 µM (active); in [5], 10.1 µM (active). Also, in “cells”, the IC50 was 4.71 µM (active).

As for `c1csc(-c2nc3nc4ccccc4nc3n2Cc2ccc3c(c2)OCO3)c1`, the EC50 in [8] is 48.7 µM (active); in data set [9] it was 45.5 µM (active).

As to `Cc1ccccc1CN1C(=O)C(O)(CC(=O)c2ccncc2)c2ccccc21` (stereo not given), the results for the EC50 in data set [8] and in [9] were 7.98 µM (active) and 9.54 µM (active), respectively.
